In patent US11661583B2, “Drug discovery platform for Duchenne cardiomyopathy” (University of Washington, priority 2015, dated 2023):
Structures can show the parent of a compound that is named as a salt. Where two headings read alike, the source gives them in different places.

How the values were obtained:
[1] = test system: dystrophin deficient cardiomyocytes; assay: High-throughput hypotonic stress cell viability (intracellular ATP) screen; details: for Average of % viability: 384-well, 18 hours compound incubation, then 30 minutes at 12.5% normal osmolarity, CELLTITER-GLO, vs average of DMSO control wells, tested at 10^-8 to 10^-5 M, concentration not given; for Z score / Effect on viability in hypotonic stress screen (in words): primary screen; for Z score: data points ranked by Z score; for Effect on viability in hypotonic stress screen (in words): dose-response, FIG. 8
[2] = test system: dystrophin deficient cardiomyocytes
dystrophin locus = assay: SURVEYOR assay of guide RNA targeting efficiency in HEK293T cells; assay type: cell-based, human; details: FIG. 9A
Source text: (THERMO […], Waltham, Mass.) using primer set […] ID NO:3) and […] ID NO:4).

Compound | Average of % viability [1] [%] | Z score [1] | Effect on viability in hypotonic stress screen (in words) [1] | Average of % viability [2] [%] | cutting efficiency (dystrophin locus) [%]
BENZALKONIUM CHLORIDE | 194.64 ± 23.10 | 4.56 |  |  | 
C=CC1=C(C(=O)O)N2C(=O)[C@@H](NC(=O)/C(=N\O)c3csc(N)n3)[C@H]2SC1 | 185.70 ± 45.76 | 4.16 |  |  | 
COCCOC(=O)C1=C(C)NC(C)=C(C(=O)OC(C)C)C1c1cccc([N+](=O)[O-])c1 (centres unmarked) [NIMODIPINE] | 292.38 ± 56.17 | 8.97 |  |  | 
O=C(O)C(O)C(O)C(=O)O.OCc1cccnc1 (centres unmarked) [NICOTINYL ALCOHOL TARTRATE] | 262.12 ± 57.89 | 7.61 |  |  | 
O=C(O)CCCC[C@@H]1SC[C@@H]2NC(=O)N[C@@H]21 [BIOTIN] | 315.95 ± 51.89 | 10.04 |  |  | 
O=C(O)c1cc(-c2ccccc2)nc2ccccc12 [CINCHOPHEN] | 168.44 ± 44.63 | 3.38 |  |  | 
Cn1c(=O)c2c(ncn2C)n(C)c1=O [Caffeine] |  |  | demonstrated the opposite effect |  | 
CC(C)NCC(O)COc1ccc(CC(N)=O)cc1 (centres unmarked) [ATENOLOL] |  | 3.51 |  |  | 
CC(C)COCC(CN(Cc1ccccc1)c1ccccc1)N1CCCC1 (centres unmarked) [BEPRIDIL HYDROCHLORIDE] | 178.65 ± 3.48 | 3.84 |  |  | 
ANTIMYCIN A | 180.04 ± 1.89 | 3.90 |  |  | 
CCN(CC)CCOc1ccc2c(c1)C(=O)c1cc(OCCN(CC)CC)ccc1-2 [TILORONE] | 172.53 ± 15.79 | 3.56 |  |  | 
CC(=O)O[C@H]1CC[C@@]2(C)[C@H](CC[C@@H]3[C@@H]2CC[C@]2(C)[C@@H](C4=CC(=O)OC4)[C@@H](OC(C)=O)C[C@]32O)C1 [GITOXIGENIN DIACETATE] | 177.20 ± 1.17 | 3.77 |  |  | 
CCCCC1C(=O)N(c2ccccc2)N(c2ccc(O)cc2)C1=O (centres unmarked) [OXYPHENBUTAZONE] |  | 3.76 |  | 176.96 ± 42.53 | 
CCCCc1oc2ccccc2c1C(=O)c1cc(I)c(OCCN(CC)CC)c(I)c1 [AMIODARONE HYDROCHLORIDE] |  | 3.37 |  |  | 
COc1ccc2cc([C@H](C)CO)ccc2c1 [NAPROXOL] | 168.76 ± 2.61 | 3.39 |  |  | 
CN1CCN(C(c2ccccc2)c2ccc(Cl)cc2)CC1 (centres unmarked) [CHLORCYCLIZINE HYDROCHLORIDE] | 238.84 ± 35.23 | 6.56 |  |  | 
NC(=O)NO [HYDROXYUREA] | 187.65 ± 49.61 | 4.25 |  |  | 
Nc1ccc(C(=O)NCC(=O)O)cc1 [AMINOHIPPURIC ACID] | 207.49 ± 7.09 | 5.14 |  |  | 
O=C(CCCN1CCC(O)(c2ccc(Cl)cc2)CC1)c1ccc(F)cc1 [HALOPERIDOL] | 197.30 ± 19.03 | 4.68 |  |  | 
CO[C@H]1C[C@H](O[C@@H]2/C(C)=C/C[C@@H]3C[C@@H](C[C@]4(CC[C@H](C)[C@@H](C5CCCCC5)O4)O3)OC(=O)[C@@H]3C=C(C)/C(=N/O)[C@H]4OC/C(=C\C=C\[C@@H]2C)[C@]43O)O[C@@H](C)[C@@H]1O [SELAMECTIN] | 172.91 ± 25.29 | 3.58 |  |  | 
CN(C)/N=N/c1[nH]cnc1C(N)=O [DACARBAZINE] | 177.63 ± 45.35 | 3.79 |  |  | 
O=C1O[C@H]([C@@H](O)CO)C(O)=C1O [ASCORBIC ACID] | 181.48 ± 23.68 |  |  |  | 

Compound | Average of % viability [1] [%] | Z score [1] | Effect on viability in hypotonic stress screen (in words) [1] | Average of % viability [2] [%] | cutting efficiency (dystrophin locus) [%]
COc1ccc(C[C@H](N)C(=O)N[C@H]2[C@@H](O)[C@H](n3cnc4c(N(C)C)ncnc43)O[C@@H]2CO)cc1 [PUROMYCIN HYDROCHLORIDE] | 187.84 ± 39.68 | 4.25 |  |  | 
CC(=O)OCC(=O)[C@@]1(O)CC[C@H]2[C@@H]3CCC4=CC(=O)CC[C@]4(C)[C@H]3C(=O)C[C@@]21C [CORTISONE ACETATE] | 205.92 ± 12.32 | 5.07 |  |  | 
CN(C)c1nc(N(C)C)nc(N(C)C)n1 [ALTRETAMINE] | 188.22 ± 2.87 | 4.27 |  |  | 
COC(=O)[C@H](c1ccccc1Cl)N1CCc2sccc2C1 [CLOPIDOGREL SULFATE] | 194.84 ± 50.3 | 4.57 |  |  | 
C[C@@H]1CC[C@@]2(OC1)O[C@H]1[C@@H](O)[C@H]3[C@@H]4CC[C@H]5C[C@@H](O[C@@H]6O[C@H](CO)[C@H](O[C@@H]7O[C@H](CO)[C@@H](O)[C@H](O[C@@H]8OC[C@@H](O)[C@H](O)[C@H]8O)[C@H]7O[C@@H]7O[C@H](CO)[C@H](O)[C@H](O[C@@H]8O[C@H](CO)[C@@H](O)[C@H](O)[C@H]8O)[C@H]7O)[C@H](O)[C@H]6O)[C@H](O)C[C@]5(C)[C@H]4CC[C@]3(C)[C@H]1[C@@H]2C [digitonin] |  | lowest Z score | dose-responsive toxicity |  | 
CN1C(=O)CC[C@H]1c1cccnc1 [COTININE] | 188.79 ± 56.0 | 4.30 |  |  | 
Nc1nc2c(ncn2COCCO)c(=O)[nH]1 [ACYCLOVIR] | 258.33 ± 14.16 | 7.44 |  |  | 
CN1CCc2c(c3ccccc3n2Cc2ccccc2)C1.CN1CCc2c(c3ccccc3n2Cc2ccccc2)C1.O=S(=O)(O)c1cccc2c(S(=O)(=O)O)cccc12 [MEBHYDROLIN NAPHTHALENE SULFONATE] |  | 3.58 |  |  | 
NC(=O)c1ccc([N+](=O)[O-])cc1Cl [AKLOMIDE] | 276.60 ± 12.37 | 8.26 |  |  | 
CCOC(=O)C1=C(C)NC(C)=C(C(=O)OC)C1c1cccc([N+](=O)[O-])c1 (centres unmarked) [NITRENDIPINE] | 275.48 ± 52.16 | 8.21 |  |  | 
COc1cccc2c1C(=O)c1c(O)c3c(c(O)c1C2=O)C[C@@](O)(C(=O)CO)C[C@@H]3O[C@H]1C[C@H](N)[C@H](O)[C@H](C)O1 [DOXORUBICIN] | 207.98 ± 34.29 | 5.16 |  |  | 
C[C@@]12C(=O)OC(=O)[C@]1(C)[C@H]1CC[C@@H]2O1 [CANTHARIDIN] | 239.59 ± 14.65 | 6.59 |  |  | 
COc1ncnc(NS(=O)(=O)c2ccc(N)cc2)c1OC [SULFADOXINE] | 195.32 ± 23.52 | 4.59 |  |  | 
CC=CC(=O)N(CC)c1ccccc1C [CROTAMITON] | 178.25 ± 27.22 | 3.82 |  |  | 
CCCN(CCC)C(=O)C(CCC(=O)O)NC(=O)c1ccccc1 (centres unmarked) [PROGLUMIDE] | 175.69 ± 50.35 | 3.71 |  |  | 
CCCCCCCCCCCCCCCC(=O)OC/C=C(C)/C=C/C=C(C)/C=C/C1=C(C)CCCC1(C)C [RETINYL PALMITATE] | 236.79 ± 46.63 | 6.46 |  |  | 
COc1cc([C@@H]2c3cc4c(cc3[C@H](O)[C@H]3COC(=O)[C@H]23)OCO4)cc(OC)c1OC [PODOFILOX] | 168.46 ± 28.98 | 3.38 |  |  | 
C[C@]12CC[C@@H]3c4ccc(OS(=O)(=O)O)cc4CC[C@H]3[C@@H]1CCC2=O [ESTROPIPATE] | 208.65 ± 30.77 | 5.19 |  |  | 
gRNA 4: guide sequence GCTTTGGTGGGAAGAAGTAGAGG (SEQ ID NO: 8) targeting first muscle exon of human dystrophin (listed as DNA, chemistry not fully specified) |  |  |  |  | 44.3
CC(C)(C)c1ccc(C(O)CCCN2CCC(C(O)(c3ccccc3)c3ccccc3)CC2)cc1 (centres unmarked) [TERFENADINE] | 211.28 ± 22.46 | 5.31 |  |  | 
CC(=O)c1ccc2c(c1)N(CCCN(C)C)c1ccccc1S2 [ACEPROMAZINE MALEATE] | 239.1 ± 38.37 | 6.57 |  |  | 
